In ChEMBL document CHEMBL5042490, “Lead derivatization of ethyl 6-bromo-2-((dimethylamino)methyl)-5-hydroxy-1-phenyl-1H-indole-3-carboxylate and 5-bromo-2-(thiophene-2-carboxamido) benzoic acid as FabG inhibitors targeting ESKAPE pathogens” (Eur J Med Chem, 2022):

Tests used:
[1] = Inhibition of Mycobacterium tuberculosis FabG assessed as reduction in Acetoacetyl-coenzyme-A substrate in presence of NADPH preincubated for 5 mins followed by substrate addition and measured for 6 to 10 mins by spectrophotometric analysis
[2] = Inhibition of Klebsiella pneumoniae FabG1 assessed as reduction in Acetoacetyl-coenzyme-A substrate in presence of NADPH preincubated for 5 mins followed by substrate addition and measured for 6 to 10 mins by spectrophotometric analysis
[3] = Inhibition of Escherichia coli FabG assessed as reduction in Acetoacetyl-coenzyme-A substrate in presence of NADPH preincubated for 5 mins followed by substrate addition and measured for 6 to 10 mins by spectrophotometric analysis
[4] = Inhibition of Pseudomonas aeruginosa FabG assessed as reduction in Acetoacetyl-coenzyme-A substrate in presence of NADPH preincubated for 5 mins followed by substrate addition and measured for 6 to 10 mins by spectrophotometric analysis
[5] = Inhibition of Acinetobacter baumannii FabG assessed as reduction in Acetoacetyl-coenzyme-A substrate in presence of NADPH preincubated for 5 mins followed by substrate addition and measured for 6 to 10 mins by spectrophotometric analysis
[6] = Inhibition of Klebsiella pneumoniae FabG2 assessed as reduction in Acetoacetyl-coenzyme-A substrate in presence of NADH preincubated for 5 mins followed by substrate addition and measured for 6 to 10 mins by spectrophotometric analysis
[7] = Inhibition of Staphylococcus aureus FabG assessed as reduction in Acetoacetyl-coenzyme-A substrate in presence of NADPH preincubated for 5 mins followed by substrate addition and measured for 6 to 10 mins by spectrophotometric analysis
[8] = Inhibition of Salmonella typhimurium FabG assessed as reduction in Acetoacetyl-coenzyme-A substrate in presence of NADPH preincubated for 5 mins followed by substrate addition and measured for 6 to 10 mins by spectrophotometric analysis; design: species or system Salmonella enterica subsp. enterica serovar Typhimurium

O=C(CCBr)Nc1ccc(Br)cc1C(=O)O
IC50 ([1]; read-out: IC50): 78.3 µM | IC50 [2]: Not Active | IC50 [3]: Not Active | IC50 [4]: Not Active | IC50 [5]: Not Active | IC50 [6]: Not Active | IC50 [7]: Not Active | IC50 [8]: Not Active

O=C(Nc1ccc(Br)cc1C(=O)O)c1cccc(I)c1
IC50 ([1]; read-out: IC50): 14.7 µM | IC50 [2]: Not Active | IC50 ([3]; read-out: IC50): 21.6 µM | IC50 [4]: Not Active | IC50 ([5]; read-out: IC50): 15.7 µM | IC50 [6]: Not Active | IC50 [7]: Not Active | IC50 ([8]; read-out: IC50): 37.4 µM

Cc1c(Br)cccc1C(=O)Nc1ccc(Br)cc1C(=O)O
IC50 [2]: Not Active | IC50 [3]: Not Active | IC50 [4]: Not Active | IC50 ([5]; read-out: IC50): 36.7 µM | IC50 [6]: Not Active | IC50 [7]: Not Active | IC50 [8]: Not Active

CCOC(=O)c1c(CSc2nc3ccccc3s2)n(C)c2cc(Br)c(O)cc12
IC50 [2]: Not Active | IC50 ([3]; read-out: IC50): 31.8 µM | IC50 [4]: Not Active | IC50 [5]: Not Active | IC50 [6]: Not Active | IC50 [7]: Not Active | IC50 [8]: Not Active

O=C(O)c1cc(Br)ccc1NC(=O)c1cccnc1Cl
IC50 [2]: Not Active | IC50 ([3]; read-out: IC50): 15.9 µM | IC50 [4]: Not Active | IC50 [5]: Not Active | IC50 [6]: Not Active | IC50 [7]: Not Active | IC50 ([8]; read-out: IC50): 51 µM

CCOC(=O)c1c(CSc2nc3ccccc3s2)n(Cc2ccccc2)c2cc(Br)c(O)cc12
IC50 [1]: Not Active | IC50 [2]: Not Active | IC50 ([3]; read-out: IC50): 20.8 µM | IC50 [4]: Not Active | IC50 [5]: Not Active | IC50 [6]: Not Active | IC50 [7]: Not Active | IC50 [8]: Not Active

CCOC(=O)c1c(CSc2nc3ccccc3o2)n(C)c2cc(Br)c(O)cc12
IC50 [2]: Not Active | IC50 ([3]; read-out: IC50): 18.6 µM | IC50 [4]: Not Active | IC50 [5]: Not Active | IC50 [6]: Not Active | IC50 [7]: Not Active | IC50 [8]: Not Active
